Publication PMC6332024, “Molecular Cloning and Characterization of a Xanthone Prenyltransferase from Hypericum calycinum Cell Cultures” (Molecules, 2015)

System: T1, HcPT
T1 construct: pFastBac1 baculovirus, microsomes of Sf9 insect cells
Assay: HPLC-DAD prenylation assay with Sf9 microsomes, Lineweaver-Burk
Format: biochemical, Hypericum calycinum
Details: 4 mM MgCl2, 0.5 mM dithiothreitol, 50 mM potassium phosphate pH 7.5, 40 °C, 30 min

Row | Km (400 µM DMAPP constant) | Km (500 µM 1,3,6,7-tetrahydroxyxanthone constant) | SMILES
1 | 211 ± 16 µM |  | O=c1c2cc(O)c(O)cc2oc2cc(O)cc(O)c12 [1,3,6,7-THX, 1,3,6,7-tetrahydroxyxanthone]
2 |  | 87 ± 5 µM | CC(C)=CCOP(=O)(O)OP(=O)(O)O [DMAPP, dimethylallyl diphosphate]
